# Experiments:
# Caco-2 cell monolayers = assay: In vitro insulin permeation and TEER across Caco-2 cell monolayers, PE:insulin in microcontainers or solution; type: in vitro ADME; details: Caco-2, apical to basolateral, 2 h, 37 °C, 75 rpm, hHBSS pH 7.4 with 0.05% BSA, PE:insulin 1:4 w/w, RP-HPLC UV 214 nm, n = 3 passages in triplicate
# Description: Cell culturing was done in DMEM supplemented with FBS (10%, v/v), L-glutamine (2 mM), penicillin (100 U/mL), streptomycin (100 µg/mL) and NEAA (1%, v/v) for 21–23 days at 37 °C and 5% CO2 with a final density of 1 × 10^5 cells/cm^2. […] The transepithelial electrical resistance (TEER) of the Caco-2 cell monolayers was measured upon equilibration to room temperature using an Epithelial Volt/Ohm Meter (World Precision Instruments, Sarasota, FL, USA) with Endohm™ chambers. First recording took place in culture medium prior to the permeation study; after which, the monolayers were washed twice with permeation buffer consisting of 10 mM HEPES in HBSS (hHBSS) supplied with BSA (0.05%, w/v), NaHCO3 (0.38%, w/v) and adjusted to pH 7.4. […] Each of the three different studies per PE was carried out in triplicates and across three passages with all studies conducted within eight passages. […] The MC chips were then removed from the Caco-2 cell monolayers, followed by washing twice with hHBSS before TEER was recorded again.
# In vitro permeation samples without proteolysis were separated on a Kinetex XB-C18 column (100 × 4.6 mm, 5 µm, 100 Å; Phenomenex, Torrance, CA, USA), with two mobile phases of A: 0.1% (v/v) TFA in water and B: 0.1% (v/v) TFA in acetonitrile. […]
# epithelial integrity = details: cited from earlier work
# Description: The effect of local high PE concentrations on the monolayer under the opening of C10-releasing MCs has previously been visualized by laser-scanning confocal microscopy of cell monolayers cultured on Transwell® filters. Furthermore, we have previously shown that the monolayers, u ...
# [1] = system: porcine intestinal tissue; assay: Ex vivo intestinal permeation study in Franz diffusion cells; type: in vitro ADME, pig; details: Franz diffusion cell, hDMEM, 37 °C, 3 h, MC chip on mucosa, insulin by ELISA, n = 3
# Description: The jejunum and ileum were collected from an anaesthetized pig (approx. 40 kg) immediately before it was euthanized. […] Intestinal segments of 10–20 cm were prepared and stored at −20 °C until the day of the permeation study. Prior to the study, a segment was thawed in 10 mM HEPES-buffered DMEM (hDMEM) and longitudinally cut open. Luminal contents were washed away with hDMEM and the muscularis was removed using tweezers before the mucosa was cut into 4 × 4 cm pieces and placed in Franz diffusion cells. Each receptor compartment was filled with 7 mL of hDMEM facing the serosal side of the intestinal tissue. The donor side, facing the mucosa, was filled with 1.5 mL FD70 solution (100 µg/mL) in hDMEM to imitate the inclusion of a pathogen. Permeation was initiated by placing a chip of loaded MCs directly on top with the openings facing the mucosa.
# [2] = target: α-chymotrypsin from bovine pancreas (Bos taurus, UniProt P00766); details: insulin 600 µg/mL, FaSSIF, 37 °C, RP-HPLC
# Description: The compatibility of integrating proteolysis in the in vitro permeation setup was then tested by measuring TEER and viability as the metabolic activity of Caco-2 cell monolayers after 2 h of apical exposure to different concentrations of α-chymotrypsin (0, 10, 50 and 100 µg/mL) in hHBSS. Viability was determined after washing the cells with fresh hHBSS followed by the apical addition of 1.5 mL freshly made MTS (240 µg/mL) and PMS solution (2.4 µg/mL) in hHBSS before incubation in dark conditions for 1.5 h with 75 rpm orbital shaking at 37 °C. The absorbance at 492 nm of three 100 µL samples from each well was measured in a 96-well plate using a Multiskan MS 352 Microplate Reader (Labsystems, Helsinki, Finland).
# [3] = oral dosage form of insulin using C10, high doses required; cited from earlier work
# [4] = system: Caco-2 cell monolayers with apical α-chymotrypsin; assay: Combined in vitro permeation and proteolysis; details: absence of protease inhibition (insulin:SDS:MCC MCs), apical α-chymotrypsin 0.49 U/mL, 37 °C, RP-HPLC
# Description: Cell culturing was done in DMEM supplemented with FBS (10%, v/v), L-glutamine (2 mM), penicillin (100 U/mL), streptomycin (100 µg/mL) and NEAA (1%, v/v) for 21–23 days at 37 °C and 5% CO2 with a final density of 1 × 10^5 cells/cm^2. […] The transepithelial electrical resistance (TEER) of the Caco-2 cell monolayers was measured upon equilibration to room temperature using an Epithelial Volt/Ohm Meter (World Precision Instruments, Sarasota, FL, USA) with Endohm™ chambers. […] The MC chips were then removed from the Caco-2 cell monolayers, followed by washing twice with hHBSS before TEER was recorded again.
# The compatibility of integrating proteolysis in the in vitro permeation setup was then tested by measuring TEER and viability as the metabolic activity of Caco-2 cell monolayers after 2 h of apical exposure to different concentrations of α-chymotrypsin (0, 10, 50 and 100 µg/mL) in hHBSS. Viability was determined after washing the cells with fresh hHBSS followed by the apical addition of 1.5 mL freshly made MTS (240 µg/mL) and PMS solution (2.4 µg/mL) in hHBSS before incubation in dark conditions for 1.5 h with 75 rpm orbital shaking at 37 °C. The absorbance at 492 nm of three 100 µL samples from each well was measured in a 96-well plate using a Multiskan MS 352 Microplate Reader (Labsystems, Helsinki, Finland). […]
# [5] = in vivo; cited from earlier work
# Description: For overcoming the absorption barrier, PEs have been developed and studied both for paracellular enhancement by tight junction opening and transcellular e ...
compound,measurement,setting,value
"CCCCCCCCCC(=O)[O-].[Na+] [C10, n-Capric acid sodium salt]",potency as PE based on the insulin permeation rates,Caco-2 cell monolayers,equal in vitro potency to C12-carnitine
same,concentration inducing in vitro permeation,epithelial integrity; in the order,~10 mM
"CCCCCCCCCCCCOS(=O)(=O)[O-].[Na+] [SDS, sodium dodecyl sulfate]",potency as PE based on the insulin permeation rates,Caco-2 cell monolayers,significantly more potent PE when compared to C10 and C12-carnitine
same,insulin permeation across porcine intestinal tissue,[1],significantly higher insulin permeation
same,barrier integrity after exposure,epithelial integrity; 2 h exposure to 0.40 mM SDS,irreversible deterioration of barrier integrity
same,SDS concentration resulting in immediate loss of epithelial integrity,epithelial integrity; concentrations as low as,0.40 mM
insulin (human recombinant),native insulin remaining,"[2]; after 45–60 min, without STI, α-chymotrypsin 0.49 U/mL",approximately 20%
same,native insulin degraded after 2 h,"[2]; α-chymotrypsin 10 µg/mL (0.49 U/mL), 12 µg/mL STI, n = 3",more than 90%
same,glycemic control,[3],glycemic control similar to subcutaneously administered insulin
same,insulin digested on the apical side after 2 h,[4],Almost all
semaglutide,oral bioavailability,[5],0.1–1.2%
